# Measured values published in patent publication US10239887B2, “Positive allosteric modulators of the muscarinic acetylcholine receptor M4” (Vanderbilt University, priority 2016, dated 2019).
# Structures can show the parent of a compound that is named as a salt.
# Target: T1, human mAChR M4 (Homo sapiens, UniProt P08173)
# T1 sequence (P08173 1-479): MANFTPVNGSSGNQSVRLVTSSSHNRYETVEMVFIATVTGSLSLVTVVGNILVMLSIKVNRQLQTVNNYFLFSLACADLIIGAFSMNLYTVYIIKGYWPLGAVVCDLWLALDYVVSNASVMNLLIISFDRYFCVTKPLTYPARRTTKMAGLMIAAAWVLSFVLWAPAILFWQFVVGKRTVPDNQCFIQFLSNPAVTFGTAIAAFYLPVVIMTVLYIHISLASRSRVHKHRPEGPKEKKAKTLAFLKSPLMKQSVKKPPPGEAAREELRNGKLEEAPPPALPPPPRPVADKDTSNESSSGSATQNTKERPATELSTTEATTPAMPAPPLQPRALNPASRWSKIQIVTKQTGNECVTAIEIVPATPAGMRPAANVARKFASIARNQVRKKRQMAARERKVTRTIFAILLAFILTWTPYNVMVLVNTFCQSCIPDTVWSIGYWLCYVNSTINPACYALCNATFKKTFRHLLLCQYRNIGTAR
# Experiment: mAChR M4 cell-based functional assay (calcium flux), human M4
# Conditions: for Emax: % ACh maximum at 30 μM; for EC50: calcium flux
# [1] = Human M4 EC50 (nM), Table 10, PAM activity with EC20 acetylcholine
# [2] = Human M4 EC50 (nM), Table 11, PAM activity with EC20 acetylcholine
EC50 [1],Emax (Table 10),Structure (SMILES),other results
–,–,"Cc1nnc2oc3c(NCc4ccc(C(C)(C)O)cc4)ncnc3c2c1C [Compound 65, 2-[4-[[(3,4-dimethylpyrimido[4′,5′:4,5]furo[2,3-c]pyridazin-8-yl)amino]methyl]phenyl]propan-2-ol]","Emax (Human M4): 61.2%; EC50 (Human M4 EC50, CHO-K1 hM4-Gqi5 cells, increase in EC20 acetylcholine response): 2290 nM"
3570 nM,71.2%,"Cc1nc2sc3c(NCc4ccc(CN5CCOCC5)cc4)ncnc3c2c(C)c1Cl [Compound 269, 8-chloro-7,9-dimethyl-N-[[4-(morpholinomethyl)phenyl]methyl]pyrido [3′,2′:4,5]thieno[3,2-d] pyrimidin-4-amine dihydrochloride]",–
1030 nM,97.1%,"Cc1nnc2sc3c(NCc4ccc(F)c(C(=O)NC5CCCC5)c4)ncnc3c2c1C [Compound 178, N-cyclopentyl-5-[[(3,4-dimethylpyrimido [4′,5′:4,5]thieno[2,3-c]pyridazin-8-yl)amino]methyl]-2-fluoro-benzamide]",–
–,–,"COCCNC(=O)c1ccc(CNc2ncnc3c2sc2nnc(C)c(C)c23)cc1Cl [Compound 324, 2-chloro-4-[[(3,4-dimethylpyrimido [4′,5′:4,5]thieno[2,3-c]pyridazin-8-yl)amino]methyl]-N-(2-methoxyethyl) benzamide]",EC50 [2]: 164 nM; Emax (Table 11): 84%
–,–,"Cc1nnc2sc3c(N4CC[C@H](C(C)(C)O)C4)ncnc3c2c1C [Compound 354, 2-[(3S)-1-(3,4-dimethylpyrimido[4′,5′:4,5]thieno[2,3-c]pyridazin-8-yl)pyrrolidin-3-yl]propan-2-ol]",EC50 [2]: 362 nM; Emax (Table 11): 53%
7720 nM,52.2%,"Cc1nnc2sc3c(NC(C)c4ccc(C(C)(C)O)cc4)ncnc3c2c1C (stereo not shown) [Compound 100, 2-[4-[1-[(3,4-dimethylpyrimido [4′,5′:4,5]thieno[2,3-c]pyridazin-8-yl)amino]ethyl]phenyl]propan-2-ol]",–
–,–,"Cc1nnc2sc3c(NCc4ccc(C(=O)NC5CC(F)(F)C5)c(Cl)c4)ncnc3c2c1C [Compound 322, 2-chloro-N-(3,3-difluorocyclobutyl)-4-[[(3,4-dimethylpyrimido [4′,5′:4,5]thieno[2,3-c]pyridazin-8-yl)amino]methyl]benzamide]",EC50 [2]: 197 nM; Emax (Table 11): 81.6%
139 nM,87.8%,"COc1ccc(CNc2ncnc3c2sc2nnc(C)c(C)c23)cc1 [Compound 135, N-[(4-methoxyphenyl)methyl]-3,4-dimethyl-pyrimido[4′,5′:4,5]thieno [2,3-c]pyridazin-8-amine]",–
55.5 nM,89.9%,"Cc1c(Cl)nnc2sc3c(N4CCCC4)ncnc3c12 [Compound 209, 3-chloro-4-methyl-8-pyrrolidin-1-yl-pyrimido[4′,5′:4,5] thieno[2,3-c]pyridazine]",–
–,–,"COc1ccc(CNc2ncnc3c2oc2nnc(C)c(C)c23)cc1F [Compound 75, N-[(3-fluoro-4-methoxy-phenyl)methyl]-3,4-dimethyl-pyrimido[4′,5′:4,5]furo[2,3-c]pyridazin-8-amine]",Emax (Human M4): 36.4%
775 nM,79.8%,"Cc1nnc2sc3c(NCc4ccc(C(C)(C)O)c(Cl)c4)ncnc3c2c1C [Compound 188, 2-[2-chloro-4-[[(3,4-dimethylpyrimido [4′,5′:4,5]thieno[2,3-c]pyridazin-8-yl)amino]methyl]phenyl]propan-2-ol]",–
1010 nM,39.7%,"Cc1nc2oc3c(NC4CN(c5ncc(C(F)(F)F)cn5)C4)ncnc3c2c(C)c1Cl [Compound 241, 8-chloro-7,9-dimethyl-N-[1-[5-(trifluoromethyl)pyrimidin-2-yl]yl]azetidin-3-yl]pyrido [3′,2′:4,5]furo[3,2-d] pyrimidin-4-amine hydrochloride]",–
931 nM,44%,"Cc1c(Cl)cnc2sc3c(N4CC(F)(F)C4)ncnc3c12 [Compound 223, 8-chloro-4-(3,3-difluoroazetidin-1-yl)-9-methyl-pyrido [3′,2′:4,5]thieno[3,2-d] pyrimidine]",–
–,–,"Cc1nnc2oc3c(NCc4cccc(C(C)(C)O)c4)ncnc3c2c1C [Compound 67, 2-[3-[[(3,4-dimethylpyrimido [4′,5′:4,5]furo[2,3-c]pyridazin-8-yl)amino]methyl]phenyl]propan-2-ol]",Emax (Human M4): 63.4%
–,–,"Cc1nnc2sc3c(NCc4ccc(-c5ccnn5C)cc4F)ncnc3c2c1C [Compound 344, N-[[2-fluoro-4-(2-methylpyrazol-3-yl)phenyl]methyl]-3,4-dimethyl-pyrimido[4′,5′:4,5]thieno [2,3-c]pyridazin-8-amine]",EC50 [2]: 824 nM; Emax (Table 11): 70.9%
2950 nM,39.5%,"Cc1nnc2sc3c(NC4CC5(C4)CN(C(=O)c4ccc(C(F)(F)F)cc4)C5)ncnc3c2c1C [Compound 172, [6-[(3,4-dimethylpyrimido [4′,5′:4,5]thieno[2,3-c]pyridazin-8-yl)amino]-2-azaspiro[3.3]heptan-2-yl]-[4-(trifluoromethyl)phenyl]methanone]",–
3120 nM,62.6%,"Cc1nnc2sc3c(NC4CCN(c5cccc(F)c5F)C4)ncnc3c2c1C (stereo not shown) [Compound 81, N-[1-(2,3-difluorophenyl)pyrrolidin-3-yl]-3,4-dimethyl-pyrimido [4′,5′:4,5]thieno[2,3-c] pyridazin-8-amine]",–
–,–,"Cc1nnc2sc3c(N4CC(Oc5ccc(C#N)nc5)C4)ncnc3c2c1C [Compound 355, 5-[1-(3,4-dimethylpyrimido[4′,5′:4,5]thieno[2,3-c]pyridazin-8-yl)azetidin-3-yl]oxypyridine-2-carbonitrile dihydrochloride]",EC50 [2]: 1310 nM; Emax (Table 11): 49.2%
505 nM,99.7%,"Cc1nnc2sc3c(NCc4ccc(F)c(C(=O)NC5CC(F)C5)c4)ncnc3c2c1C (stereo not shown) [Compound 183, 5-[[(3,4-dimethylpyrimido [4′,5′:4,5]thieno[2,3-c]pyridazin-8-yl)amino]methyl]-2-fluoro-N-(3-fluorocyclobutyl) benzamide]",–
570 nM,98.5%,"Cc1nnc2sc3c(NCc4ccc(F)c(C(=O)NC5CCC5)c4)ncnc3c2c1C [Compound 177, N-cyclobutyl-5-[[(3,4-dimethylpyrimido [4′,5′:4,5]thieno[2,3-c]pyridazin-8-yl)amino]methyl]-2-fluoro-benzamide]",–
–,–,"Cc1ccc(O[C@H]2CCN(c3ncnc4c3sc3nnc(C)c(C)c34)C2)cn1 [Compound 364, 3,4-dimethyl-8-[(3S)-3-[(6-methyl-3-pyridyl)oxy]pyrrolidin-1-yl]pyrimido [4′,5′:4,5]thieno[2,3-c] pyridazine dihydrochloride]",EC50 [2]: 423 nM; Emax (Table 11): 50.7%
1880 nM,54.4%,"Cc1nc2oc3c(NCc4cccc(C(C)(C)O)c4)ncnc3c2c(C)c1Cl [Compound 288, 2-[3-[[(8-chloro-7,9-dimethyl-pyrido[3′,2′:4,5]furo[3,2-d]pyrimidin-4-yl)amino]methyl]phenyl]propan-2-ol]",–
941 nM,98.4%,"Cc1nnc2sc3c(NC4CC4c4ccc(F)c(F)c4)ncnc3c2c1C (stereo not shown) [Compound 119, N-[2-(3,4-difluorophenyl)cyclopropyl]-3,4-dimethyl-pyrimido [4′,5′:4,5]thieno[2,3-c] pyridazin-8-amine]",–
3370 nM,37.7%,"Cc1cc(C)c2c(n1)oc1c(N3CC4(COC4)C3)ncnc12 [Compound 296, 7,9-dimethyl-4-(2-oxa-6-azaspiro[3.3]heptan-6-yl)pyrido[3′,2′:4,5]furo[3,2-d]pyrimidine]",–
818 nM,45.9%,"Cc1nnc2oc3c(NC4CCCC4)ncnc3c2c1C [Compound 304, N-cyclopentyl-3,4-dimethyl-pyrimido [4′,5′:4,5]furo[2,3-c]pyridazin-8-amine]",–
456 nM,68.7%,"Cc1cc(C)c2c(n1)sc1c(N3CC(F)(F)C3)ncnc12 [Compound 198, 4-(3,3-difluoroazetidin-1-yl)-7,9-dimethyl-pyrido[3′,2′:4,5] thieno[3,2-d]pyrimidine]",–
1250 nM,45.5%,"Cc1nc2oc3c(NCc4ccc(S(C)(=O)=O)cc4)ncnc3c2c(C)c1Cl [Compound 248, 8-chloro-7,9-dimethyl-N-[(4-methylsulfonylphenyl)methyl]pyrido[3′,2′:4,5] furo[3,2-d]pyrimidin-4-amine hydrochloride]",–
828 nM,97.7%,"Cc1nnc2sc3c(NCc4ccc(C(F)(F)F)nc4)ncnc3c2c1C [Compound 146, 3,4-dimethyl-N-[[6-(trifluoromethyl)-3-pyridyl]methyl]pyrimido [4′,5′:4,5]thieno[2,3-c] pyridazin-8-amine hydrochloride]",–
–,–,"Cc1nnc2sc3c(N4CC[C@H](Oc5ccnc(C(F)(F)F)c5)C4)ncnc3c2c1C [Compound 331, 3,4-dimethyl-8-[(3S)-3-[[2-(trifluoromethyl)-4-pyridyl]oxy]pyrrolidin-1-yl]pyrimido [4′,5′:4,5]thieno[2,3-c] pyridazine]",EC50 [2]: 142 nM; Emax (Table 11): 80.6%
482 nM,83.7%,"Cc1nnc2sc3c(NCc4ccc(C(=O)N5CCCC5)cc4)ncnc3c2c1C [Compound 122, [4-[[(3,4-dimethylpyrimido [4′,5′:4,5]thieno[2,3-c]pyridazin-8-yl)amino]methyl]phenyl]-pyrrolidin-1-yl-methanone]",–
